This is an account of results in patent publication US20220016092A1, “METHODS FOR TREATING SYMPTOMS AND DISORDERS ASSOCIATED WITH LYSOSOMAL STORAGE DISEASES” (GENZYME CORPORATION, priority 2019, published 2022).

Assay [1] deals with GM3 expression in C32 human melanoma cells. The assay can be described thus: GM3 fluorescent-linked immunosorbent assay (FLISA), C32 cells. Type of assay: cell-based. Conditions: 48 hours. An excerpt:
(§1) Inhibition of glucosylceramide synthase activity can be measured with one or more assays. A first assay is a microsomal assay that directly measures the conversion of ceramide to glucosylceramide by HPLC. Microsomes are a source of glucosylceramide synthase activity in the microsomal assay. A second assay is a cell based, phenotypic assay that monitors cell surface expression of the downstream lipid GM3 by antibody mediated immunofluorescence. Specific protocols are provided below.
(§2) This is a phenotypic assay that measures GM3 expression in B16 mouse melanoma or C32 human melanoma cells following treatment with test compounds. Cell surface GM3 expression is determined by antibody mediated fluorescence.
(§3) Compounds are diluted in media and plated in 384 well plates in DMSO. B16 and C32 cells are assayed at densities of 20,000 cells/ml and 62,500 cells/ml, respectively, per well. Each titration curve contains 10 points that are assayed in duplicate on each test run. The plates are incubated for 48 hours at 37° C., 5% CO2, and are then washed once with TBS. Anti-GM3 antibody is added to each well and the plates are then incubated for an additional one hour at room temperature. Plates are subsequently washed twice and incubated for an additional hour with the labeled secondary antibody. Following the final incubation, the plates are washed twice and the fluorescence at λex=D640/20 nm and λem=657 nm is detected on a fluorescent reader.
(§4) The results of the microsomal assays are expressed as “GCS IC50”, which represents the concentration of the compound causing 50% inhibition of glucosylceramide synthase activity. The results of the cell-based assays are expressed as “GM3 B16 IC50” or “GM3 C32 IC50” for the B16 assay and the C32 assay, respectively. These values represent the concentration of the compound causing 50% inhibition of GM3 expression on the cell surface.

The subject of assay [2] is GM3 expression in B16 mouse melanoma cells. In words: GM3 fluorescent-linked immunosorbent assay (FLISA), B16 cells. Type of assay: cell-based. Conditions: 48 hours.
Description: as §1, §2, §3, §4

In assay [3] the test system is GL-3, lyso-GL-3, GL-1 and GM3. The note with it: Fabry patients of the historical phase 3 trial (Eng et al. 2001), matched; after 156 weeks; cited from earlier work.

As to `CC(C)(NC(=O)OC1CN2CCC1CC2)c1cccc(-c2ccc(F)cc2)c1` (stereo not drawn) [Compound 1, 1-azabicyclo[2.2.2]oct-3-yl[2-(4′-fluorobiphenyl-3-yl)propan-2-yl]carbamate], the values for the 50% inhibitory concentration (IC50) in assay [1] and in assay [2] were 2.1 nM and 15.6 nM, respectively.
As for `COCCOc1ccc(-c2ccc(C(C)(C)NC(=O)O[C@@H]3CN4CCC3CC4)cc2)cc1` [Compound 3, (S)-quinuclidin-3-yl(2-(4′-(2-methoxyethoxy)-[1,1′-biphenyl]-4-yl)propan-2-yl)carbamate], the values for the IC50 in assay [1] and in assay [2] were 1.31 nM and 43.7 nM, respectively.
Regarding `CC(C)(NC(=O)OC1CN2CCC1CC2)c1cccc(-c2ccccc2)c1` (stereo not drawn) [Compound 4, 1-azabicyclo[2.2.2]oct-3-yl[2-(biphenyl-3-yl)propan-2-yl]carbamate], the IC50 came to 0.8 nM in assay [1] and 11.6 nM in assay [2].
On to `CC(C)(NC(=O)O[C@@H]1CN2CCC1CC2)c1ccc(-c2ccccc2)cc1` [Compound 5, (S)-quinuclidin-3-yl 2-(biphenyl-4-yl)propan-2-ylcarbamate], for which the 50% inhibitory concentration (IC50) worked out at 0.3 nM in assay [1] and 19.3 nM in assay [2].
For `O=C(NC1(c2ccc(-c3ccccc3)cc2)CC1)OC1CN2CCC1CC2` (stereo not drawn) [Compound 6, Quinuclidin-3-yl 1-(biphenyl-4-yl)cyclopropylcarbamate], the IC50 was found to be 0.6 nM in assay [1] and 18.1 nM in assay [2].
The corresponding values for `O=C(NC1(c2ccc(-c3ccc(F)cc3)cc2)CC1)O[C@@H]1CN2CCC1CC2` [Compound 7, (S)-quinuclidin-3-yl 1-(4′-fluorobiphenyl-4-yl)cyclopropylcarbamate] are 0.4 nM and 8.1 nM.
Regarding `O=C(NC1(c2ccc(-c3ccc(F)cc3F)cc2)CC1)O[C@@H]1CN2CCC1CC2` [Compound 8, (S)-1-azabicyclo[2.2.2]oct-3-yl[1-(2′,4′-difluorobiphenyl-4-yl)cyclopropyl]carbamate], the IC50 in assay [1] was found to be 0.4 nM; in assay [2], 7.5 nM.
The corresponding values for `COc1ccc(-c2ccc(C3(NC(=O)OC4CN5CCC4CC5)CC3)cc2)cc1` (stereo not drawn) [Compound 9, 1-azabicyclo[2.2.2]oct-3-yl[1-(4′-methoxybiphenyl-4-yl)cyclopropyl]carbamate] are 0.4 nM and 16.8 nM.
In the same order, the values of `CC(C)(NC(=O)OC1CN2CCC1CC2)c1csc(-c2ccc(F)cc2)c1` (stereo not drawn) [Compound 10, Quinuclidin-3-yl 2-(5-(4-fluorophenyl)thiophen-3-yl)propan-2-ylcarbamate] are 2.2 nM and 21.3 nM.
The corresponding values for `CC(C)(NC(=O)O[C@@H]1CN2CCC1CC2)c1cc(-c2ccc(F)cc2)ns1` [Compound 11, (S)-quinuclidin-3-yl 2-(3-(4-fluorophenyl)isothiazol-5-yl)propan-2-ylcarbamate] are 1.8 nM and 81.9 nM.
Turning to `CC(C)(NC(=O)O[C@@H]1CN2CCC1CC2)c1nc(-c2ccc(F)cc2)cs1` [Compound 12, (S)-quinuclidin-3-yl 2-(4-(4-fluorophenyl)thiazol-2-yl)propan-2-ylcarbamate], the IC50 in assay [1] was 3.7 nM; in assay [2] it was 87.8 nM.
In the same order, the values of `COCCOc1ccc(-c2ccc(C(C)(C)NC(=O)OC3CN4CCC3CC4)cc2)cc1` (stereo not drawn) [Compound 13, Quinuclidin-3-yl(2-(4′-(2-methoxyethoxy)-[1,1′-biphenyl]-4-yl)propan-2-yl)carbamate] are 0.7 nM and 38.6 nM.
On to `COCCOc1cccc(-c2ccc(C(C)(C)NC(=O)O[C@@H]3CN4CCC3CC4)cc2)c1` [Compound 14, (S)-quinuclidin-3-yl(2-(3′-(2-methoxyethoxy)-[1,1′-biphenyl]-4-yl)propan-2-yl)carbamate], for which the IC50 in assay [1] was determined as 5.3 nM; in assay [2], 110 nM.
Turning to `COCCOc1ccc(-c2cccc(C(C)(C)NC(=O)OC3CN4CCC3CC4)c2)cc1` (stereo not drawn) [Compound 15, Quinuclidin-3-yl(2-(4′-(2-methoxyethoxy)-[1,1′-biphenyl]-3-yl)propan-2-yl)carbamate], the results for the IC50 in assay [1] and in assay [2] were 4.9 nM and 29.5 nM, respectively.
In the same order, the values of `COCCCOc1ccc(-c2ccc(C(C)(C)NC(=O)OC3CN4CCC3CC4)cc2)cc1` (stereo not drawn) [Compound 16, Quinuclidin-3-yl(2-(4′-(3-methoxypropoxy)-[1,1′-biphenyl]-4-yl)propan-2-yl)carbamate] are 1.6 nM and 66.6 nM.
The corresponding values for `CC(C)(NC(=O)OC1CN2CCC1CC2)c1ccc(-c2ccc(CO)cc2)cc1` (stereo not drawn) [Compound 17, Quinuclidin-3-yl(2-(4′-(hydroxymethyl)-[1,1′-biphenyl]-4-yl)propan-2-yl)carbamate] are 21.6 nM and 879 nM.
In the same order, the values of `CC(C)(NC(=O)OC1CN2CCC1CC2)c1ccc(-c2ccc(CCO)cc2)cc1` (stereo not drawn) [Compound 18, Quinuclidin-3-yl(2-(4′-(2-hydroxyethyl)-[1,1′-biphenyl]-4-yl)propan-2-yl)carbamate] are 22.3 nM and 656 nM.
As to `COCCCOc1ccc(-c2nc(C(C)(C)NC(=O)OC3CN4CCC3CC4)cs2)cc1` (stereo not drawn) [Compound 19, Quinuclidin-3-yl(2-(2-(4-(3-methoxypropoxy)phenyl)thiazol-4-yl)propan-2-yl)carbamate], the IC50 in assay [1] was found to be 42.6 nM; in assay [2] it was 197 nM.
As to `COCCOc1ccc(-c2nc(C(C)(C)NC(=O)OC3CN4CCC3CC4)cs2)cc1` (stereo not drawn) [Compound 20, Quinuclidin-3-yl(2-(2-(4-(2-methoxyethoxy)phenyl)thiazol-4-yl)propan-2-yl)carbamate], the IC50 in assay [1] stood at 19.8 nM; in assay [2] it was 106 nM.
For the molecule `COCCOc1ccc(-c2ccc(C(C)(C)NC(=O)OC3CN4CCC3CC4)nc2)cc1` (stereo not drawn) [Compound 21, Quinuclidin-3-yl 2-(5-(4-(2-methoxyethoxy)phenyl)pyridin-2-yl)propan-2-ylcarbamate], the IC50 in assay [1] amounted to 11.1 nM; in assay [2], 266 nM.
The corresponding values for `CC(C)(NC(=O)OC1CN2CCC1CC2)c1ccc(-c2ccc(OCCCC#N)cc2)cc1` (stereo not drawn) [Compound 22, Quinuclidin-3-yl(2-(4′-(3-cyanopropoxy)-[1,1′-biphenyl]-4-yl)propan-2-yl)carbamate] are 3.2 nM and 86.5 nM.
Consider `CC(C)(NC(=O)OC1CN2CCC1CC2)c1ccc(-c2ccc(OCC#N)cc2)cc1` (stereo not drawn) [Compound 23], for which the IC50 in assay [1] came out at 0.8 nM; in assay [2], 47.7 nM.

B1: agalsidase beta: historical control arm: patients treated with agalsidase beta (Fabrazyme) in a previously completed placebo-controlled phase 3 trial (protein, UniProt P06280 32-429, looked up)
Alpha-galactosidase A: LDNGLARTPTMGWLHWERFMCNLDCQEEPDSCISEKLFMEMAELMVSEGWKDAGYEYLCIDDCWMAPQRDSEGRLQADPQRFPHGIRQLANYVHSKGLKLGIYADVGNKTCAGFPGSFGYYDIDAQTFADWGVDLLKFDGCYCDSLENLADGYKHMSLALNRTGRSIVYSCEWPLYMWPFQKPNYTEIRQYCNHWRNFADIDDSWKSIKSILDWTSFNQERIVDVAGPGGWNDPDMLVIGNFGLSWNQQVTQMALWAIMAAPLFMSNDLRHISPQAKALLQDKDVIAINQDPLGKQGYQLRQGDNFEVWERPLSGLAWAVAMINRQEIGGPRSYTIAVASLGKGVACNPACFITQLLPVKRKLGFYEWTSRLRSHINPTGTVLLQLENTMQMSLKDLL
modifications: agalsidase beta
notes: historical control arm: patients treated with agalsidase beta (Fabrazyme) in a previously completed placebo-controlled phase 3 trial
Turning to B1, the “Plasma GL-3 levels” value in assay [3] is 4.44 µg/mL.
